Source: patent US8263638B2, “Dosing regimens for ion channel modulating compounds” (priority 2004, dated 2012)

Assays:
[1] = Plasma concentrations of COMPOUND A in electrophysiology study (Example 1); format: in vivo; details: human, intravenous, T = 45 min
Experimental: Blood samples for COMPOUND A concentrations were drawn at 0, 10 and 45 minutes after the start of drug infusion, and at discharge the next day.

[2] = system: atrial fibrillation of 3 to 72 h duration; assay: Randomized, double-blind, step-dose, placebo-controlled study in acute atrial fibrillation (Example 2); format: in vivo, human
Experimental: This was a randomized, double-blind, step-dose, placebo-controlled, parallel group study on humans. Fifty-six patients with atrial fibrillation of 3 to 72 h duration were randomized to one of two COMPOUND A dose groups or to placebo. The two COMPOUND A groups were RSD-1 (0.5 mg/kg followed by 1.0 mg/kg) or RSD-2 (2.0 mg/kg followed by 3.0 mg/kg), doses given by intravenous infusion over 10 min. The primary endpoint was termination of atrial fibrillation during a 10-min infusion or the subsequent 30-min. Secondary endpoints included the number of patients in sinus rhythm at 0.5, 1 and 24 h post-infusion and time to conversion to sinus rhythm. […] COMPOUND A converted acute atrial fibrillation to sinus rhythm.
Patients in this study had to have a rhythm of sustained atrial fibrillation (AF) with a duration of 3 to 72 h at the time of randomization. Patients were randomized to one of three groups and in each group received up to two 10-min intravenous infusions, separated by 30 min. Infusions were placebo followed by placebo, 0.5 mg/kg followed by 1.0 mg/kg COMPOUND A, or 2.0 […] COMPOUND A. The second dose in each group was administered only if AF was present 30 min after completion of the first dose. Doses for patients weighing>113 kg were capped as if the patient weight was 113 kg.
A Holter rhythm strip continuously monitored ECG, vital signs (blood pressure and heart rate, BP and HR, respectively) and O2 saturation were recorded every 2 min from the start of infusion to 5 min after, as well as at 15, 30, 60, 120, 240, 360, and 480 min and at discharge and one-week follow-up. Twelve-lead ECGs were obtained before dosing and every minute during infusion to 5 min after, as well as at 15, 30, 60, 120, 240, 360, and 480 min and at discharge, 24 h and one-week follow-up, and at the time of arrhythmia termination or significant rhythm changes. Venous blood samples were drawn for COMPOUND A plasma concentrations at 0, 15, 30, 120, 240, 480 min discharge and at AF termination or significant adverse events.
Fifty-five patients were evaluated for efficacy. Data are presented as mean±SD, median with interquartile range (IQR), all tests were performed as two sided and 95% confidence interval (CI) were produced; p<0.05 was considered statistically significant unless stated otherwise. Analysis of the relationship between termination of AF and treatment was performed using a chi-square analysis. In cases of small cell frequencies, the Fisher's exact test was used. A Cochran-Armitage test statistic with table scores was used to test the ascending dose evaluation of efficacy.
The time to conversion from the start of the first infusion was analyzed by the Cox regression method of event time analysis and one-way ANOVA. Assessment of the significance of time point values and mean change from baseline to each follow-up reading of ECG intervals (QRS, QT, QTc), BP, and HR were made within dose groups using paired t tests, and comparisons among dose groups were made using a one-way ANOVA.

[3] = End infusion 1, 0.5 and 1.0 mg/kg
[4] = End infusion 1, 2.0 and 3.0 mg/kg
[5] = End infusion 2, 0.5 and 1.0 mg/kg
[6] = End infusion 2, 2.0 and 3.0 mg/kg

With COc1ccc(CCO[C@@H]2CCCC[C@H]2N2CC[C@@H](O)C2)cc1OC.Cl [COMPOUND A, (1R,2R)-2-[(3R)-hydroxypyrrolidinyl]-1-(3,4-dimethoxyphenethoxy)cyclohexane monohydrochloride] the concentration at 45 min ([1]; Dose Level 1, 2 mg/kg) was 1080 ± 279 ng/mL, the concentration at 45 min ([1]; Dose Level 2, 4 mg/kg) was 2170 ± 422 ng/mL and the “net efficacy for conversion of recent onset AF” value ([2]; 61% to 5% (placebo)) was 56%. The “median time for termination of AF from the start of the first infusion” value ([2]; COMPOUND A treatment groups (FIG. 1)) was 11 min, the “HEART RATE” value [2, 3] was 104 ± 7 BPM and the QRS [2, 3] was 86 ± 3 ms. For the same compound, the QTc [2, 3] was 419 ± 6 ms, the “HEART RATE” value [2, 4] was 98 ± 5 BPM and the QRS [2, 4] was 95 ± 3 ms. The QTc [2, 4] was 449 ± 9 ms, the “HEART RATE” value [2, 5] was 107 ± 6 BPM and the QRS [2, 5] was 90 ± 6 ms. For the same compound, the QTc [2, 5] was 414 ± 11 ms, the “HEART RATE” value [2, 6] was 104 ± 6 BPM and the QRS [2, 6] was 99 ± 5 ms. For the same compound, the QTc [2, 6] was 447 ± 17 ms, the “cumulative AF termination within 30 min of infusion” value ([2]; RSD-1: 0.5 mg/kg followed by 1.0 mg/kg i.v.) was 11% and the “patients in sinus rhythm (excluding those electrically cardioverted) at 24 h post infusion” value ([2]; RSD-1: 0.5 + 1.0 mg/kg) was 56%. For the same compound, the “patients in sinus rhythm at 30 min post-infusion” value ([2]; RSD-1: 0.5 + 1.0 mg/kg) was 11%, the “patients in sinus rhythm at 1 h post infusion” value ([2]; RSD-1: 0.5 + 1.0 mg/kg) was 11% and the “median time to conversion to sinus rhythm from the start of the first infusion” value ([2]; RSD-1, five eventual responders) was 166 min. The “patients reporting cardiac disorders (adverse events)” value ([2]; RSD-1 group) was 22.2%, the “electrical cardioversion attempted within the study period (24 h)” value ([2]; RSD-1 treated) was 50% and the electrical cardioversion successful ([2]; RSD-1 treated) was 100%. For the same compound, the “cumulative AF termination within 30 min of infusion” value ([2]; RSD-2: 2.0 mg/kg followed by 3.0 mg/kg i.v.) was 61%, the “patients in sinus rhythm (excluding those electrically cardioverted) at 24 h post infusion” value ([2]; RSD-2: 2.0 + 3.0 mg/kg) was 79% and the “patients in sinus rhythm at 30 min post-infusion” value ([2]; RSD-2: 2.0 + 3.0 mg/kg) was 56%. For the same compound, the “patients in sinus rhythm at 1 h post infusion” value ([2]; RSD-2: 2.0 + 3.0 mg/kg) was 53%, the “median time to conversion to sinus rhythm from the start of the first infusion” value ([2]; RSD-2, eleven responders) was 14 min and the mean heart rate ([2]; RSD-2 dose, T1=15 min (baseline mean 106)) was 90 beats per min. For the same compound, the “median time to termination of AF after start of the first infusion” value ([2]; RSD-2 group) was 11 min, the “patients reporting cardiac disorders (adverse events)” value ([2]; RSD-2 group) was 16.7% and the “electrical cardioversion attempted within the study period (24 h)” value ([2]; RSD-2 treated) was 22%. For the same compound, the electrical cardioversion successful ([2]; RSD-2 treated) was 100%, the “QT interval, first available ECG records after conversion to sinus rhythm” value ([2]; human, in vivo) was 366 ± 28 ms and the “QTc interval, first available ECG records after conversion to sinus rhythm” value ([2]; human, in vivo) was 427 ± 19 ms. For the same compound, the drug related proarrhythmia ([2]; in vivo) was “no instances” and the “effect on QTc or QRS intervals compared to placebo” value ([2]; infusion) was “did not significantly prolong”.
